Laboratory results: patent publication US6906205B2, “Spiro and dispiro 1,2,4-trioxolane antimalarials” (Medicines for Malaria Venture MMV, priority 2002, dated 2005)
≈ marks a conversion by molar mass, not a printed value.

System: ANKA strain of P. berghei
Assay: single dose STI in vivo screen in infected mice
Parameters: species or system Plasmodium berghei
Settings: percent reduction in parasitemia day 3 post-infection; single 10 mg/kg po in 3% ethanol and 7% Tween 80; mice
Summary of the method: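 Groups of 3-5 Moro SPF or NMRI mice infected with the ANKA strain of P. berghei received a single dose of trioxolane on day one post-infection. The compound was given in 3% ethanol and 7% Tween 80 or in SSV (0.5% w/v CMC, 0.5% v/v benzyl alcohol, 0.4% v/v Tween 80, 0.9% w/v sodium chloride in water). Antimalarial activity was scored as percent reduction in parasitemia on day three and as survival time versus untreated controls. Survival to day 30 counted as cure.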

| SMILES | Activity (%) po |
| --- | --- |
| O=C(NN=C1CCC2(CC1)OOC1(O2)C2CC3CC(C2)CC1C3)Nc1ccccc1 (centres unmarked) [OZ30] | 0% |
| C1C2CC3CC1CC(C2)C31OOC2(CCC3(CC2)OOC2(O3)C3CC4CC(C3)CC2C4)O1 (centres unmarked) [OZ169] | 98% |
| CN1CCN(C(=O)N2CCC3(CC2)OOC2(O3)C3CC4CC(C3)CC2C4)CC1 (centres unmarked) [OZ157] | 90% |
| CON=C1CC2CC3(CC2C1)OOC1(O3)C2CC3CC(C2)CC1C3 (centres unmarked) [OZ37] | 83% |
| CS(=O)(=O)N1CCC2(CC1)OOC1(O2)C2CC3CC(C2)CC1C3 (centres unmarked) [OZ56] | 93% |
| ON=C1CCC2(CC1)OOC1(O2)C2CC3CC(C2)CC1C3 (centres unmarked) [OZ16] | 79% |
| O=[N+]([O-])c1ccc(N2CCC3(CC2)OOC2(O3)C3CC4CC(C3)CC2C4)cc1 (centres unmarked) [OZ151] | 71% |
| c1ccc(C2(c3ccccn3)OOC3(O2)C2CC4CC(C2)CC3C4)nc1 (centres unmarked) [OZ81] | 0/NA/0% |
| C1CC2(CCO1)OOC1(O2)C2CC3CC(C2)CC1C3 (centres unmarked) [OZ22] | 35% |

Same assay, conditions: percent reduction in parasitemia day 3 post-infection; single 10 mg/kg sc in 3% ethanol and 7% Tween 80; mice

| SMILES | Activity (%) sc |
| --- | --- |
| O=C(NN=C1CCC2(CC1)OOC1(O2)C2CC3CC(C2)CC1C3)Nc1ccccc1 (centres unmarked) [OZ30] | 86% |
| C1C2CC3CC1CC(C2)C31OOC2(CCC3(CC2)OOC2(O3)C3CC4CC(C3)CC2C4)O1 (centres unmarked) [OZ169] | 99.76% |
| CN1CCN(C(=O)N2CCC3(CC2)OOC2(O3)C3CC4CC(C3)CC2C4)CC1 (centres unmarked) [OZ157] | 97% |
| CON=C1CC2CC3(CC2C1)OOC1(O3)C2CC3CC(C2)CC1C3 (centres unmarked) [OZ37] | 99.98% |
| CS(=O)(=O)N1CCC2(CC1)OOC1(O2)C2CC3CC(C2)CC1C3 (centres unmarked) [OZ56] | 99.97% |
| ON=C1CCC2(CC1)OOC1(O2)C2CC3CC(C2)CC1C3 (centres unmarked) [OZ16] | 99.2% |
| O=[N+]([O-])c1ccc(N2CCC3(CC2)OOC2(O3)C3CC4CC(C3)CC2C4)cc1 (centres unmarked) [OZ151] | 99.63% |
| c1ccc(C2(c3ccccn3)OOC3(O2)C2CC4CC(C2)CC3C4)nc1 (centres unmarked) [OZ81] | 0/NA/0% |
| C1CC2(CCO1)OOC1(O2)C2CC3CC(C2)CC1C3 (centres unmarked) [OZ22] | 99.6% |

Same assay, conditions: percent reduction in parasitemia day 3 post-infection; single po dose in standard suspending vehicle (SSV); mice

| SMILES | Activity (%) SSVpo |
| --- | --- |
| C1C2CC3CC1CC(C2)C31OOC2(CCC3(CC2)OOC2(O3)C3CC4CC(C3)CC2C4)O1 (centres unmarked) [OZ169] | 22% |
| CN1CCN(C(=O)N2CCC3(CC2)OOC2(O3)C3CC4CC(C3)CC2C4)CC1 (centres unmarked) [OZ157] | 80% |
| CS(=O)(=O)N1CCC2(CC1)OOC1(O2)C2CC3CC(C2)CC1C3 (centres unmarked) [OZ56] | 63% |
| ON=C1CCC2(CC1)OOC1(O2)C2CC3CC(C2)CC1C3 (centres unmarked) [OZ16] | 83% |
| O=[N+]([O-])c1ccc(N2CCC3(CC2)OOC2(O3)C3CC4CC(C3)CC2C4)cc1 (centres unmarked) [OZ151] | 71% |

Same assay, conditions: single 10 mg/kg po in 3% ethanol and 7% Tween 80; untreated control 5.6 ± 0.3

| SMILES | Survival (days) po |
| --- | --- |
| O=C(NN=C1CCC2(CC1)OOC1(O2)C2CC3CC(C2)CC1C3)Nc1ccccc1 (centres unmarked) [OZ30] | 5.3 days |
| C1C2CC3CC1CC(C2)C31OOC2(CCC3(CC2)OOC2(O3)C3CC4CC(C3)CC2C4)O1 (centres unmarked) [OZ169] | 7.7 days |
| CN1CCN(C(=O)N2CCC3(CC2)OOC2(O3)C3CC4CC(C3)CC2C4)CC1 (centres unmarked) [OZ157] | 7.3 days |
| CON=C1CC2CC3(CC2C1)OOC1(O3)C2CC3CC(C2)CC1C3 (centres unmarked) [OZ37] | 6.7 days |
| CS(=O)(=O)N1CCC2(CC1)OOC1(O2)C2CC3CC(C2)CC1C3 (centres unmarked) [OZ56] | 6.7 days |
| ON=C1CCC2(CC1)OOC1(O2)C2CC3CC(C2)CC1C3 (centres unmarked) [OZ16] | 6.7 days |
| O=[N+]([O-])c1ccc(N2CCC3(CC2)OOC2(O3)C3CC4CC(C3)CC2C4)cc1 (centres unmarked) [OZ151] | 7.3 days |
| c1ccc(C2(c3ccccn3)OOC3(O2)C2CC4CC(C2)CC3C4)nc1 (centres unmarked) [OZ81] | 5.3 days |
| C1CC2(CCO1)OOC1(O2)C2CC3CC(C2)CC1C3 (centres unmarked) [OZ22] | 6.0 days |

Same assay, conditions: single 10 mg/kg sc in 3% ethanol and 7% Tween 80; untreated control 5.6 ± 0.3

| SMILES | Survival (days) sc |
| --- | --- |
| O=C(NN=C1CCC2(CC1)OOC1(O2)C2CC3CC(C2)CC1C3)Nc1ccccc1 (centres unmarked) [OZ30] | 9.0 days |
| C1C2CC3CC1CC(C2)C31OOC2(CCC3(CC2)OOC2(O3)C3CC4CC(C3)CC2C4)O1 (centres unmarked) [OZ169] | 9.0 days |
| CN1CCN(C(=O)N2CCC3(CC2)OOC2(O3)C3CC4CC(C3)CC2C4)CC1 (centres unmarked) [OZ157] | 8.3 days |
| CON=C1CC2CC3(CC2C1)OOC1(O3)C2CC3CC(C2)CC1C3 (centres unmarked) [OZ37] | 13 days |
| CS(=O)(=O)N1CCC2(CC1)OOC1(O2)C2CC3CC(C2)CC1C3 (centres unmarked) [OZ56] | 10.3 days |
| ON=C1CCC2(CC1)OOC1(O2)C2CC3CC(C2)CC1C3 (centres unmarked) [OZ16] | 7.3 days |
| O=[N+]([O-])c1ccc(N2CCC3(CC2)OOC2(O3)C3CC4CC(C3)CC2C4)cc1 (centres unmarked) [OZ151] | 11.0 days |
| c1ccc(C2(c3ccccn3)OOC3(O2)C2CC4CC(C2)CC3C4)nc1 (centres unmarked) [OZ81] | 5.0 days |
| C1CC2(CCO1)OOC1(O2)C2CC3CC(C2)CC1C3 (centres unmarked) [OZ22] | 7.7 days |

Same assay, conditions: single po dose in SSV; untreated control 5.6 ± 0.3

| SMILES | Survival (days) SSVpo |
| --- | --- |
| C1C2CC3CC1CC(C2)C31OOC2(CCC3(CC2)OOC2(O3)C3CC4CC(C3)CC2C4)O1 (centres unmarked) [OZ169] | 6.7 days |
| CN1CCN(C(=O)N2CCC3(CC2)OOC2(O3)C3CC4CC(C3)CC2C4)CC1 (centres unmarked) [OZ157] | 8.3 days |
| CS(=O)(=O)N1CCC2(CC1)OOC1(O2)C2CC3CC(C2)CC1C3 (centres unmarked) [OZ56] | 5.7 days |
| ON=C1CCC2(CC1)OOC1(O2)C2CC3CC(C2)CC1C3 (centres unmarked) [OZ16] | 6.7 days |
| O=[N+]([O-])c1ccc(N2CCC3(CC2)OOC2(O3)C3CC4CC(C3)CC2C4)cc1 (centres unmarked) [OZ151] | 7.3 days |

System: Schistosoma mansoni adult schistosomes (49-day-old)
Assay: effect on adult schistosomes (49-day-old) in mice
Assay type: in vivo
Settings: single 400 mg/kg per os
Method: Mice were infected with 100 Schistosoma mansoni cercariae […]. Each group was treated per os with OZ compounds at single doses of 200, 400, and 600 mg/kg. […] All groups were killed 4 weeks after treatment and the liver and intestine were removed and separated. The liver and intestine were compressed and alive male and female worms could be seen and counted.

| SMILES | % reduction of adult worms growth at day 49 after per os application of 400 mg/kg, TWR (%) | adult worms at day 49, per os 400 mg/kg, DEAD WORM (%) |
| --- | --- | --- |
| c1ccc(C2(c3ccccn3)OOC3(O2)C2CC4CC(C2)CC3C4)nc1 (centres unmarked) [OZ81] | 28% | 0% |

System: P. falciparum NF54 strain (sensitive to standard antimalarials)
Assay: semiautomated microdilution assay, [3H]-hypoxanthine incorporation, NF54 strain
Assay type: cell-based, Plasmodium falciparum
Settings: NF54 strain, 72 h incubation
Summary of the method: (§1)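 IC50 values come from logit regression of semiautomated microdilution data obtained on intraerythrocytic parasites drawn from asynchronous cultures.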

| SMILES | IC50 (ng/ml) NF54 |
| --- | --- |
| O=C(NN=C1CCC2(CC1)OOC1(O2)C2CC3CC(C2)CC1C3)Nc1ccccc1 (centres unmarked) [OZ30] | 1.3 ng/mL (≈ 3.16 nM) |
| C1C2CC3CC1CC(C2)C31OOC2(CCC3(CC2)OOC2(O3)C3CC4CC(C3)CC2C4)O1 (centres unmarked) [OZ169] | > 10 ng/mL |
| CN1CCN(C(=O)N2CCC3(CC2)OOC2(O3)C3CC4CC(C3)CC2C4)CC1 (centres unmarked) [OZ157] | 0.22 ng/mL (≈ 0.562 nM) |
| CS(=O)(=O)N1CCC2(CC1)OOC1(O2)C2CC3CC(C2)CC1C3 (centres unmarked) [OZ56] | 0.64 ng/mL (≈ 1.86 nM) |
| ON=C1CCC2(CC1)OOC1(O2)C2CC3CC(C2)CC1C3 (centres unmarked) [OZ16] | 0.67 ng/mL (≈ 2.28 nM) |
| O=[N+]([O-])c1ccc(N2CCC3(CC2)OOC2(O3)C3CC4CC(C3)CC2C4)cc1 (centres unmarked) [OZ151] | 4.0 ng/mL (≈ 10.4 nM) |
| c1ccc(C2(c3ccccn3)OOC3(O2)C2CC4CC(C2)CC3C4)nc1 (centres unmarked) [OZ81] | >100/>100 ng/ml |
| C1CC2(CCO1)OOC1(O2)C2CC3CC(C2)CC1C3 (centres unmarked) [OZ22] | 0.56 ng/mL (≈ 2.1 nM) |

System: Schistosoma mansoni 21-day-old schistosomules
Assay: effect on 21-day-old schistosomules in mice
Assay type: in vivo
Settings: single 200 mg/kg per os, female mice
Method: All groups were killed 4 weeks after treatment and the liver and intestine were removed and separated. The liver and intestine were compressed and alive male and female worms could be seen and counted. The effect of the compounds was evaluated by mean total and female worm burden.

| SMILES | % reduction of schistosomule growth at day 21 after per os application of 200 mg/kg, FWR (%) | % reduction of schistosomule growth at day 21 after per os application of 200 mg/kg, TWR (%) |
| --- | --- | --- |
| O=C(NN=C1CCC2(CC1)OOC1(O2)C2CC3CC(C2)CC1C3)Nc1ccccc1 (centres unmarked) [OZ30] | 12% | 16% |
| C1C2CC3CC1CC(C2)C31OOC2(CCC3(CC2)OOC2(O3)C3CC4CC(C3)CC2C4)O1 (centres unmarked) [OZ169] | 0% | 0% |
| CN1CCN(C(=O)N2CCC3(CC2)OOC2(O3)C3CC4CC(C3)CC2C4)CC1 (centres unmarked) [OZ157] | 68% | 65% |
| CON=C1CC2CC3(CC2C1)OOC1(O3)C2CC3CC(C2)CC1C3 (centres unmarked) [OZ37] | 53% | 63% |
| CS(=O)(=O)N1CCC2(CC1)OOC1(O2)C2CC3CC(C2)CC1C3 (centres unmarked) [OZ56] | 66% | 69% |
| ON=C1CCC2(CC1)OOC1(O2)C2CC3CC(C2)CC1C3 (centres unmarked) [OZ16] | 77% | 78% |
| O=[N+]([O-])c1ccc(N2CCC3(CC2)OOC2(O3)C3CC4CC(C3)CC2C4)cc1 (centres unmarked) [OZ151] | 19% | 19% |
| C1CC2(CCO1)OOC1(O2)C2CC3CC(C2)CC1C3 (centres unmarked) [OZ22] | 76% | 75% |

System: P. falciparum K1 strain (Thailand resistant to chloroquine)
Assay: semiautomated microdilution assay, [3H]-hypoxanthine incorporation, K1 strain
Assay type: cell-based, Plasmodium falciparum
Settings: K1 strain, 72 h incubation
Summary of the method: as §1

| SMILES | IC50 (ng/ml) K1 |
| --- | --- |
| O=C(NN=C1CCC2(CC1)OOC1(O2)C2CC3CC(C2)CC1C3)Nc1ccccc1 (centres unmarked) [OZ30] | 0.65 ng/mL (≈ 1.58 nM) |
| C1C2CC3CC1CC(C2)C31OOC2(CCC3(CC2)OOC2(O3)C3CC4CC(C3)CC2C4)O1 (centres unmarked) [OZ169] | 15 ng/mL (≈ 33.7 nM) |
| CN1CCN(C(=O)N2CCC3(CC2)OOC2(O3)C3CC4CC(C3)CC2C4)CC1 (centres unmarked) [OZ157] | 0.20 ng/mL (≈ 0.511 nM) |
| CS(=O)(=O)N1CCC2(CC1)OOC1(O2)C2CC3CC(C2)CC1C3 (centres unmarked) [OZ56] | 0.59 ng/mL (≈ 1.72 nM) |
| ON=C1CCC2(CC1)OOC1(O2)C2CC3CC(C2)CC1C3 (centres unmarked) [OZ16] | 0.45 ng/mL (≈ 1.53 nM) |
| O=[N+]([O-])c1ccc(N2CCC3(CC2)OOC2(O3)C3CC4CC(C3)CC2C4)cc1 (centres unmarked) [OZ151] | 3.8 ng/mL (≈ 9.83 nM) |
| c1ccc(C2(c3ccccn3)OOC3(O2)C2CC4CC(C2)CC3C4)nc1 (centres unmarked) [OZ81] | >100/>100 ng/ml |
| C1CC2(CCO1)OOC1(O2)C2CC3CC(C2)CC1C3 (centres unmarked) [OZ22] | 0.32 ng/mL (≈ 1.2 nM) |
